Broadly, the Km is the substrate concentration at which the rate is half of its maximum. As a reminder, the IC50 is the concentration that gives 50% inhibition. A higher IC50 goes with weaker potency.

Entries after “also recorded” stand apart in the source; their conditions may differ.

The results in this text go back to US20090012130A1, “Strategies for Designing Drugs that Target the Sir2 Family of Enzymes” (priority 2005, published 2009).

For test [1], the target named is T1, Sir2Tm wild type (Thermotoga maritima, UniProt Q9WYW0). The format is biochemical. Also noted: made in house; host or cells: E. coli. The procedure: (§1) The deacetylation activity was measured using the Fluor de Lys-SirT1 assay (Biomol), using a peptide containing amino acids 379-RHK-K(Ac)-382 of p53 as substrate. […] The reactions were carried out at 37° C. in a 50 μL reaction volume containing 50 mM Tris, pH 8, 50 mM NaCl and 400 μM fluorolabeled peptide (˜10 times KM). […] Reactions were done at least in triplicate. The data were fitted to the Michaelis-Menten equation using SigmaPlot to obtain the kinetic constants. […] The data were fitted to equation (1) using SigmaPlot (SYSTAT) to calculate the IC50 values:
(§2) vI=v0(1−(I/(IC50+I))) Equation (1)
(§3) where v0 is the initial rate of the uninhibited reaction and vI is the initial rate of the reaction at concentration I of inhibitor.

For test [2], the target named is T2, Sir2Tm-D101N mutant (Thermotoga maritima, UniProt Q9WYW0, D101N). The experiment in a line: biochemical. The format is biochemical. Set-up: made in house; host or cells: E. coli. To be noted: for apparent kcat of cosubstrate-dependent deacetylation / Km / IC50: Sir2Tm-D101N mutant; for Km: 400 μM fluorolabeled peptide, read-out: apparent KM for cosubstrate; for IC50: fluorolabeled p53 peptide, 37° C. The procedure:
as §1, §2, §3

For test [3], the target named is T2, Sir2Tm-D101N mutant. To be noted: Sir2Tm-D101N mutant 2.5 mg/mL; 0.1 mM ^14C-labelled base, 2 mM NAD^+, 500 μM acetylated p53 peptide, 37° C., 3 hours.
Protocol: (§4) After incubation at 37° C. for 3 hours, 8 μL of each reaction was spotted on a Polygram SIL-G TLC plate (Machevey-Nagel, 20×20). The plate was developed in a pre equilibrated chamber with 80:20 ethanol:2.5 M ammonium acetate. After chromatography, the plate was air dried and exposed to a phosphorimaging screen overnight.
Test [4] has as its target T1, Sir2Tm wild type. To be noted: 0.1 mM ^14C-labelled base, 2 mM NAD^+, 500 μM acetylated p53 peptide, 37° C., 3 hours.
Protocol: as §4

T1 sequence (Q9WYW0 whole entry, the tested form may be a part): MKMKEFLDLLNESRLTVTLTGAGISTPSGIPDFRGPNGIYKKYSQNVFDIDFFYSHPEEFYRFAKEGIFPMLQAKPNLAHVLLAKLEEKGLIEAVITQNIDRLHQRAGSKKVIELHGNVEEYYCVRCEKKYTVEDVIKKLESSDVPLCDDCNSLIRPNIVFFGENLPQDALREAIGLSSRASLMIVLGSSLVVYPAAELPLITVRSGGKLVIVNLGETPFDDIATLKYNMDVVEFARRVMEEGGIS
T2 sequence (Q9WYW0 whole entry D101N): as the sequence (Q9WYW0 whole entry, the tested form may be a part) above, with D101N counted along it

Take `NC(=O)c1ccc[n+]([C@@H]2O[C@H](COP(=O)([O-])OP(=O)(O)OC[C@H]3O[C@@H](n4cnc5c(N)ncnc54)[C@H](O)[C@@H]3O)[C@@H](O)[C@H]2O)c1` [NAD^+, nicotinamide adenine dinucleotide]: the “kcat of cosubstrate-dependent deacetylation” value in test [1] is 0.170 ± 0.006 s⁻¹. In test [1] (400 μM fluorolabeled peptide, read-out: KM for cosubstrate), the Km was determined as 53 ± 11 µM. Besides, in test [2], the “apparent kcat of cosubstrate-dependent deacetylation” value is listed as “(1.8±0.1)×10^−3 s^−1” and the Km was found to be 1170 ± 180 µM. Further, in test [2] (Sir2Tm-D101N versus wild type Sir2Tm), the “fold increase of KM, D101N mutant versus wild type” value is 22 fold.
For the molecule `O=C(O)c1cccnc1` [nicotinic acid], the “inhibition of wild type enzyme deacetylation activity” value in test [1] (inhibitor added to concentrations of up to 100 mM) is on record as “fail to inhibit”. In addition, the figures for the “base exchange activity (formation of labelled dinucleotide)” value in test [3] and in test [4] were “able to synthesize ^14C-labelled NAAD” and “cannot do; also recorded: no detectable formation of NAAD”, respectively. For the same molecule, the IC50 in test [2] (IC50, inhibition of NAAD-dependent deacetylation activity, 2 mM NAAD) worked out at 6.2 ± 2 mM; in test [2] (IC50, inhibition of NAD^+-dependent deacetylation activity, 2 mM NAD^+) it was 11.3 ± 3.3 mM.
For `Nc1ncnc2c1ncn2[C@@H]1O[C@H](COP(=O)(O)OP(=O)(O)OC[C@H]2O[C@@H]([n+]3cccc(C(=O)O)c3)[C@H](O)[C@@H]2O)[C@@H](O)[C@H]1O` [NAAD, nicotinic acid adenine dinucleotide], the “deacetylation activity with the dinucleotide as cosubstrate” value in test [1] (up to 2.56 mg/ml enzyme, incubation 4 hours) was “no detectable deacetylation activity; also recorded: undetectable”. For the same molecule, in test [2], the “apparent kcat of cosubstrate-dependent deacetylation” value is on record as “(1.1±0.1)×10^−3 s^−1” and the Km worked out at 617 ± 43 µM.
For the molecule `NC(=O)c1cccnc1` [nicotinamide], the “base exchange activity (formation of labelled dinucleotide)” value in test [3] and in test [4] was “could catalyze formation of labeled NAD^+” in each case.
